61 compounds from a melting point compilation (Tetko et al.; mined from patent text by program, amines drawn as free bases though some values may be those of a salt) can be followed below.

Compound `CCC1Cc2ccc(NC(=N)c3cccs3)cc2CN1C` (stereo unspecified) registered a melting point of 125 to 126 °C.

`Cc1cc(C#N)sc1-c1ccc2c(c1)C(C)(C)OC(=S)N2` had a melting point of 211 to 212 °C.

Regarding `CCOC(=O)Nc1c(C(=O)c2cccc(C)c2)[nH]c2cc(Cl)ccc12`, the melting point was 154 to 157 °C.

In turn, `COC1(c2cccc(OCc3ccc(-n4cnc(-c5ccccc5)c4)cc3)c2)CCOCC1` registered a melting point of 98 to 100 °C.

Take `CC(=O)n1ncc(=O)[nH]c1=O`: the melting point was determined as 150 °C.

Take `C#CCNC(=O)/C=C\SC(=O)c1ccccc1`: the melting point was 131 to 134 °C.

Regarding `O=[N+]([O-])c1c(NCC(O)CO)cccc1NCC(O)CO` (stereo unspecified), the melting point was found to be 138 °C.

The compound `CCOC(=O)C1=C(C)NC(CN2C(=O)c3ccccc3C2=O)=C(C(=O)OCC)C1c1ccccc1` (stereo unspecified) had a melting point of 169 to 170 °C.

For `OC(CBr)C(O)C(O)C(O)CBr` (stereo unspecified), the melting point is 183 to 185 °C.

In the case of `COc1ccc(C2Sc3cc(Cl)ccc3NC(=O)C2O)cc1` (stereo unspecified), the melting point is 237 to 241 °C.

On to `O=C(c1ccc([N+](=O)[O-])cc1)N1CCN(c2ccncc2)CC1`, for which the melting point was in the range of 158 to 160 °C.

For the compound `Nc1cc(C(F)(F)C(F)(F)C(F)(F)C=CC(F)(F)C(F)(F)C(F)(F)c2ccc(O)c(N)c2)ccc1O`, the melting point lay within 187 to 188 °C.

`Oc1ccc(C(O)(c2ccccc2)C(CCCCl)c2ccccc2)cc1` (stereo unspecified) yielded a melting point of 75 to 78 °C.

For the compound `Fc1c(Cl)cccc1Br`, the melting point came out at 43 °C.

`COC(=O)c1cc(N(CCO)CCO)c(S(C)(=O)=O)cc1[N+](=O)[O-]` registered a melting point of 99 to 100 °C.

Take `CCn1cncc1/C=C/c1cn(-c2ccccc2)nc1OCc1ccc(OCc2nc(-c3ccc(CC(=O)O)cc3)oc2C)c(OC)c1`: the melting point fell in the range of 149 to 150 °C.

The compound `CC(=O)N(C)c1cc(N)cc(N(C)C(C)=O)c1` registered a melting point of 179 to 181 °C.

`Cc1cccc2nc(CSc3ncnc4[nH]cnc34)n(-c3ccccc3Cl)c(=O)c12` yielded a melting point of 228 to 230 °C.

`CC(C)(C)[Si](Oc1ccc2[nH]c(=O)oc(=O)c2c1)(c1ccccc1)c1ccccc1` had a melting point of 185 °C.

The compound `COc1ccc(S(=O)(=O)Nc2cc(C(=O)Nc3ccccc3)ccc2OC)cc1` gave a melting point of 184 to 186 °C.

Consider `C#CCn1c(C(F)(F)F)cc2ccccc21`, for which the melting point came out at 59 °C.

Turning to `COc1cc(O)c2c(=O)c(OC)c(-c3ccc(OCc4ccccc4)c(OC)c3)oc2c1`, the melting point lay in the range of 156 to 157 °C.

Consider `O=C1NC(=O)C(Cc2ccc(OC3=C(Cl)C(=O)c4ccccc4C3=O)cc2)S1` (stereo unspecified), for which the melting point fell in the range of 250 to 252 °C.

In turn, `CNC(=NO)NCc1ccccc1` yielded a melting point of 97 to 99 °C.

As for `CCOC(=O)c1ccc2[nH]c(C(=O)OCc3ccccc3)cc2c1`, the melting point was 123 °C.

Compound `O=C(NOCC(O)CN1CCCCC1)Nc1ccccc1` (stereo unspecified) yielded a melting point of 101 to 103 °C.

`CC(C)c1ccc(OC(Cc2ccc(OCCNC(=O)c3ccc(-c4ccc(F)cc4)nc3)cc2)C(=O)O)cc1` (stereo unspecified) returned a melting point of 199 to 200 °C.

Turning to `CCOC(=O)CCNC(=O)c1[nH]c(C)c(-c2nc3ccc(C(=O)c4ccccc4)cc3[nH]2)c1C`, the melting point lay within 135 to 137 °C.

On to `CC(=O)OC1CSC(Oc2cccc(-c3cccnc3)c2)C(OC(C)=O)C1OC(C)=O` (stereo unspecified), for which the melting point was 123 to 126 °C.

Regarding `Cc1c(CCC(=O)c2cn(Cc3ccccc3)c3ccccc23)ncn1C(c1ccccc1)(c1ccccc1)c1ccccc1`, the melting point was 186 to 188 °C.

For the compound `O=c1ccc(C2(O)CCCCC2)c[nH]1`, the melting point was 194 to 196 °C.

`O=C(O)CC(=O)NCc1cc(Br)cc2[nH]c(=O)c(=O)[nH]c12`: the melting point was above 300 °C.

As to `CC1c2cccc3c2N(CC3)c2ccccc2N1C(=O)CN(C)Cc1ccccc1` (stereo unspecified), the melting point lay in the range of 101 to 106 °C.

As for `Fc1ccc(-c2nn3cc(C(F)(F)F)ccc3c2-c2ccnc(NC3CCCC3)n2)cc1`, the melting point was 155 to 156 °C.

The compound `Cc1c(C(=O)C(N)=O)c2c(OCC(=O)O)cc3c(c2n1Cc1ccccc1)CCCC3` had a melting point above 300 °C.

Take `CC(C(=O)NC(C)(C)C)c1cc(Cl)ccc1C(=O)O` (stereo unspecified): the melting point was 175 to 178 °C.

Consider `C[C@@](N)(Cc1ccc(-c2cncnc2)cc1)C(=O)Nc1cc(Cl)cc(Cl)c1`, for which the melting point was 124 to 126 °C.

As for `Cc1cc2c(cc1Cl)C(NCCC1CCN(C(=O)OC(C)(C)C)CC1)(c1ccccc1Cl)C(=O)N2` (stereo unspecified), the melting point lay in the range of 245 to 248 °C.

For the compound `C#CCNC(=O)c1ncn2c1CN(C)C(=O)c1cc(F)ccc1-2`, the melting point lay in the range of 205 to 206 °C.

`Cn1nccc1CCS(=O)Cc1ccc(OCc2coc(/C=C/c3ccc(C(F)(F)F)cc3)n2)cc1` (stereo unspecified) returned a melting point of 172 to 174 °C.

Compound `O=C(NCCCCn1cncn1)c1ccc(Cl)s1` gave a melting point of 97 to 99 °C.

`O=[N+]([O-])c1cnc2ccc(S)cc2c1-c1ccccc1` displayed a melting point of 160 to 163 °C.

In the case of `Cc1c(-c2ccccc2)nn(N)c1OCCN1CCOCC1`, the melting point turned out to be 96 °C.

`COc1ccc(-c2ncn(C3CCCCO3)c2-c2ccc(OC)cc2)cc1` (stereo unspecified) showed a melting point of 127 to 128 °C.

Consider `CCN1C(=O)CCC(C)(C)c2cc(Nc3ncc(Cl)c(N[C@H]4[C@@H](C(N)=O)[C@@H]5C=C[C@H]4C5)n3)c(OC)cc21`, for which the melting point is 156 to 166 °C.

The compound `Cc1nc2c(-c3cccc(N4CCN(C)CC4)c3)cnn2c(N)c1-c1ccc(F)c(Cl)c1` had a melting point of 224 to 226 °C.

`Cc1c(Cc2ccccc2)c(=O)oc2cc(OCC3NOC(=O)N3)cc(OCC3NOC(=O)N3)c12` (stereo unspecified): the melting point was in the range of 130 to 136 °C.

Compound `Oc1ccc2nc(-c3ccc(O)c(F)c3)cc(C#Cc3ccccc3)c2c1` returned a melting point of 125 to 129 °C.

The compound `C[C@]1(COc2ccc(N3CCN(Cc4ccc(N5CCC(Oc6ccc(OC(F)(F)F)cc6)CC5)cc4)CC3)cc2)Cn2cc([N+](=O)[O-])nc2O1` yielded a melting point of 198 to 201 °C.

Consider `CNc1nc(-c2cccc(OCc3ccccc3)c2)c2cc(OC)c(OC)cc2n1`, for which the melting point is 116 to 118 °C.

As to `CC(C)NCC(O)c1ccc2c(c1)OCO2` (stereo unspecified), the melting point fell in the range of 117 to 118 °C.

In the case of `CNC(=O)CC1CN=C(c2cc3cc(Oc4ccc(S(C)(=O)=O)cc4)cc(OC)c3[nH]2)S1` (stereo unspecified), the melting point fell in the range of 125 to 126 °C.

`O=c1ccc2cc(-c3cccnc3)ccc2[nH]1` yielded a melting point of 217 to 218 °C.

Turning to `CCN(CC)C(=O)Cc1cc(-c2ccccc2)nc2ccccc12`, the melting point stood at 86 °C.

`CCCc1ccc(O)c(NC(=O)C(=O)OCC)c1` displayed a melting point of 155 to 160 °C.

For `Cc1cn(-c2cc(NC(=O)c3ccc(C)c(C#Cc4ccc(NC5CC5)nn4)c3)cc(C(F)(F)F)c2)cn1`, the melting point fell in the range of 226 to 228 °C.

In turn, `COc1ccc(-c2[nH]nc3c2C(=O)c2c(NC(=O)NN(C)C)cccc2-3)cc1` showed a melting point above 300 °C.

The compound `COC(=O)N(C(S)=NC(C)C)c1c(C(C)C)cccc1C(C)C` returned a melting point of 98 to 99 °C.

`CCCc1nn(C)c2c(=O)n(CCOc3ccc(SC(C)(C)C(=O)O)cc3)c(CC)nc12` registered a melting point of 104 to 106 °C.

As to `Nc1sc2c(c1C(=O)c1ccc(Br)s1)CCC2`, the melting point was in the range of 154 to 156 °C.

`NC(=O)OCCn1cc(C(=O)O)c(=O)c2cc(F)c(N3CCNCC3)c(F)c21`: the melting point is 204 to 206 °C.

A word on the melting point: it is the temperature, or range, at which the solid turns liquid.
